These results are taken from patent US20070207975A1, “Materials and methods for treating and preventing Her-2/neu overexpressing, FAS-elevated cancer cells” (EVANSTON NORTHWESTERN HEALTHCARE, priority 2006, published 2007).

Read-outs that look alike come from different tables or passages of the source.

What all share (format): cell-based, human
In one experiment the test system is Her-2/neu protein. Nature of the experiment: Immunoblot analysis of Her-2/neu protein. In general terms: In western blotting, separated proteins are transferred to a membrane and probed.
Experiment [1] deals with Wild-type Her-2/neu promoter. Nature of the experiment: Luciferase reporter driven by wild-type Her-2/neu promoter, transient transfection. The following applies: for Luciferase activity relative to vehicle-treated wild-type promoter cells: GLA 10 μg/mL for 24 hours; for inhibition at 20 µM: Homo sapiens, OA 20 μM, 24 hours, read-out: reduction (inhibition) of Her-2/neu gene promoter activity. Here is the method:
FIG. 11. Luciferase activity in transiently transfected cells. Luciferase activity was assayed in cells that were transiently transfected with a pGL2-Luc construct containing a luciferase reporter gene under the control of a Her-2/neu promoter fragment containing a wild-type (top panel, left) or mutant (top panel, right) PEA3 binding site as described herein. The magnitude of activation in Her-2/neu promoter-luciferase-transfected cells was determined after normalization of the luciferase activity obtained in cells co-transfected with equivalent amounts of the empty pGL2-Luciferase vector lacking the Her-2/neu promoter (-luciferase) and the internal control plasmid pRL-CMV. This control value was used to calculate the relative change in the transcriptional activities of Her-2/neu-promoter-luciferase-transfected cells in response to treatments after normalization to pRL-CMV. The activity of the wild-type promoter in untreated control cells was defined as 100%. […] One-factor ANOVA was used to analyzed differences in the percentages of luciferase activity between the various treatment groups.
The luciferase activities reported in Table 3 were assayed in cells that were transiently transfected with a pGL2-luciferase (Promega Inc., Madison, Wis.) construct containing a luciferase reporter gene under the control of a Her-2/neu promoter fragment containing a wild-type or mutant PEA3 binding site, as previously described by Xing et al. (36), incorporated herein by reference. […] Luciferase activity from cell extracts was detected with a Luciferase Assay System (Promega Inc.).
To conduct Her-2/neu promoter activity assays, cells were initially transfected using FuGENE 6 transfection reagent (Roche Biochemicals, Indianapolis, Ind.) as directed by the manufacturer. Overnight-serum starved cancer cells seeded into 24-well plates (˜5×10^4 cells/well) were transfected in low-serum (0.1% FBS) media with 1.5 μg/well of the pGL2-luciferase (Promega, Madison, Wis.) construct containing a luciferase reporter gene driven by either an intact (Her-2/neu wild-type PEA3-binding site-luciferase) or by a mutated (Her-2/neu mutated PEA3-binding site-luciferase) Her-2/neu promoter fragment along with […] of the internal control plasmid pRL-CMV, which was used to correct for transfection efficiency. […] Approximately 24 hours after treatments, luciferase activities from cell extracts were detected with a luciferase Assay System following manufacturer's instructions (Promega, Madison, Wis., USA) using a Victor^2™ Multilabel Counter (Perkin-Elmer Life Sciences).
(A reporter such as luciferase makes a cellular process visible.)

The subject of a further experiment is BT-474 cells. Nature of the experiment: MTT cell viability / isobologram analysis, BT-474. Here is the method: (§1) FIG. 10. […] Cells in exponential growth were harvested, seeded at a concentration of ˜5×10^3 cells/200 μl/well into 96-well plates and allowed to attach overnight. […] Agents were studied in combination concurrently, and they were not renewed during the entire period of cell exposure. After treatment, the medium was removed and replaced by fresh drug-free medium (100 μl/well), and MTT (5 mg/ml in phosphate-buffered saline [PBS]) was added to each well at a 1/10 volume. After 2-3 hours at 37° C., the supernatants were removed, 100 μl of dimethylsulfoxide was added to each well, and the plates were agitated. Absorbances were measured at 570 nm using a multiwell plate reader (Model Anthos Labtec 2010 1.7 reader). The cell viability effects from exposure of cells to each agent alone and to their combination were analyzed by generating concentration-effect curves as a plot of the fraction of unaffected (surviving) cells versus drug concentration. Dose-response curves were plotted as percentages of the control cell absorbances, which were obtained from control wells treated with appropriate concentrations of vehicles that were processed simultaneously. For each treatment, cell viability was evaluated as a percentage using the following equation: (A570 of treated sample/A570 of untreated sample)×100. […] All statistical tests were two-sided. […]

The next experiment has as its system SK-Br3 cells. Nature of the experiment: MTT cell viability / isobologram analysis, SK-Br3. Here is the method:
as §1

The next experiment concerns SK-Br3 and BT-474 cells. Nature of the experiment: Anchorage-dependent cell proliferation (Coulter Counter). The following applies: low concentrations of OA, increasing concentrations of trastuzumab, or combination, 6 days.

Procedure for SK-Br3 and BT-474 cells: (A) Left panel: exponentially growing SK-Br3 and BT-474 cells were trypsinized and plated in 24-well plates at a density of 10,000 cells/well. Cells were incubated for 24 hours to allow for attachment and starved for serum overnight, after which a zero time point was determined. […] Cells were counted at days 0, 3 and 6 with a Coulter Counter. All assays were performed three times in triplicate. The data are presented as mean number of cells×10^4/well (columns)±SD (bars) after 6 days treatment. […] For each pair of columns, the height of the columns on the left represents the sum of the effect of each agent alone and, therefore, the expected percentage of cell growth inhibition if their effect was additive when used in combination. […] Colony formation (≧50 μm) was assessed using a colony counter. Each experimental value represents the mean colony number (columns)±SD (bars) from three separate experiments in which triplicate dishes were counted. […]
SK-Br3 and BT-474 cells exponentially growing in IMEM-5% FBS were trypsinized and re-plated in 24-well plates at a density of 10,000 cells/well. Cells were incubated for 24 hours to allow for attachment, after which a zero time point was determined. […] Cell number was determined at days 0, 3 and 6 with a Coulter Counter (Coulter Electronics, Inc., Hialeah, Fla.). […]

For `CCCCCC=CCC=CCC=CCCCCC(=O)O` [GLA, 6,9,12-octadecatrienoic acid], the Her-2/neu protein levels result with Her-2/neu protein (BT-474 and SK-Br3, GLA 10 μg/mL for 48 hours) is listed as “substantial reduction”; in the experiment with Her-2/neu protein (MDA-MB-231 (low Her-2/neu), GLA exposure) it was “did not affect”; in the experiment on Her-2/neu protein (MDA-MB-453, SK-OV3 and NCI-N87, GLA 10 μg/mL for 48 hours), “markedly decreased”. The “Luciferase activity relative to vehicle-treated wild-type promoter cells” value in experiment [1] (BT-474) is 35% (95% CI = 33-37%); in experiment [1] (MDA-MB-231), 80% (95% CI = 75-85%); in experiment [1] (MDA-MB-453), 26% (95% CI = 25-27%); in experiment [1] (NCI-N87), 38% (95% CI = 34-42%); in experiment [1] (SK-Br3), 54% (95% CI = 51-57%); in experiment [1] (SK-OV3), 21% (95% CI = 16-26%). Besides, the “increase in sensitivity to trastuzumab” value with BT-474 cells (concurrent 10 μg/ml GLA) is “approximately 30 fold”; with SK-Br3 cells (concurrent 10 μg/ml GLA), roughly 40 fold.

Consider `CCCCCCCCC=CCCCCCCCC(=O)O` [OA, 9-octadecenoic acid], for which, in the experiment on SK-Br3 and BT-474 cells, the anchorage-dependent cell growth result is given as “no notable effects”. The Her-2/neu protein levels entry in the experiment on Her-2/neu protein (MCF-7/Her2-18 transfectants (SV40 promoter), OA treatment) is “failed to decrease”; in the experiment on Her-2/neu protein (MCF-7/neo cells, OA supplementation), “not significantly affected”. For the same molecule, in the experiment with Her-2/neu protein (SK-Br3, SK-OV3 and NCI-N87, OA 20 μM, 48 hours), the Her-2/neu protein expression result was “down-regulation”. Also, the inhibition at 20 µM in experiment [1] (NCI-N87, 24 h, NCI-N87) is 55%; in experiment [1] (SK-BR-3, 24 h, SK-Br3), no more than 56%; in experiment [1] (SK-OV-3, 24 h, SK-OV3) it was no more than 75%. The “reduction of Her-2/neu gene promoter activity” value in experiment [1] (MCF-7/Her2-18 transfectants, OA supplementation) is given as “up to 22%”. The “reduction of wild-type Her-2/neu promoter luciferase reporter activity” value in experiment [1] (MCF-7/neo cells, OA treatment) is given as “up to 12%”. The “reduction of Her-2/neu promoter activity” value in experiment [1] (MCF-7 breast cancer cells (physiological Her-2/neu levels), OA) is listed as less than 20%. The “sensitization factor (IC50 without OA / IC50 with OA)” value is 40 fold in the experiment with BT-474 cells (10 mM OA, sensitization to trastuzumab) and 27 fold with SK-Br3 cells (OA co-exposure, sensitization to trastuzumab).
